Measurements from PMC11239673, “Structural basis for the bi-specificity of USP25 and USP28 inhibitors” (EMBO Reports, 2024).
Substitutions are numbered along the chain they refer to. Several values for one entry are separate records, joined by “and”; a condition that tells them apart may be missing. Equal entries are not always repeated. Where two headings read alike, the source gives them in different places.

What was measured:
Format in all cases: biochemical
[1] = target: T1, USP28Δtip D265S (Homo sapiens, UniProt Q96RU2, D265S/INS458SGSG); experiment: Ub-Rho110 dose–response assay, USP28Δtip D265S; settings: for IC50: USP28 - D265S
T1 sequence (Q96RU2 with tags, fused parts or gaps D265S/INS458SGSG): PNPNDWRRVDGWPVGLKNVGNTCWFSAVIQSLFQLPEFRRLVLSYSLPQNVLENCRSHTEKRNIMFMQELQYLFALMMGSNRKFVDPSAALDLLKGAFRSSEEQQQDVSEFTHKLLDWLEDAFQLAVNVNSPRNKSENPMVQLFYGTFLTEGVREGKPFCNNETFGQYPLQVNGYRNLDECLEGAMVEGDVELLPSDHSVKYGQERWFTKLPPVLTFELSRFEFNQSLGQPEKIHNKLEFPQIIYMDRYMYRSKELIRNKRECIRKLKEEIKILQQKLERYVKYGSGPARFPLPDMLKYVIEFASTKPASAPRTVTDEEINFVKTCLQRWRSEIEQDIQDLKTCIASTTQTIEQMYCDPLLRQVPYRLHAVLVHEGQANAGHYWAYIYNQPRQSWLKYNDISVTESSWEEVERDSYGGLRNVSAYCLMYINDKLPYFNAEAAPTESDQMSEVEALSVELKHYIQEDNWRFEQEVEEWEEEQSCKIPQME

[2] = target: T2, USP28Δtip Q315A (Homo sapiens, UniProt Q96RU2, INS458SGSG/Q315A); experiment: Ub-Rho110 dose–response assay, USP28Δtip Q315A; settings: for IC50: USP28 - Q315A
T2 sequence (Q96RU2 with tags, fused parts or gaps Q315A/INS458SGSG): T1 sequence (Q96RU2 with tags, fused parts or gaps D265S/INS458SGSG)

[3] = target: T3, USP25Δtip H268A (Homo sapiens, UniProt Q9UHP3, DEL465-537/H268A/INS464GSGSGS); experiment: Ub-Rho110 dose–response assay, USP25Δtip H268A
T3 construct: 6xHis or thioredoxin-6xHis (N, cleaved yes); made in house; host or cells: E. coli BL21star (DE3)
T3 sequence (Q9UHP3 with tags, fused parts or gaps H268A/DEL465-477/P478G/DEL482-535/A536G/P537S limits assumed): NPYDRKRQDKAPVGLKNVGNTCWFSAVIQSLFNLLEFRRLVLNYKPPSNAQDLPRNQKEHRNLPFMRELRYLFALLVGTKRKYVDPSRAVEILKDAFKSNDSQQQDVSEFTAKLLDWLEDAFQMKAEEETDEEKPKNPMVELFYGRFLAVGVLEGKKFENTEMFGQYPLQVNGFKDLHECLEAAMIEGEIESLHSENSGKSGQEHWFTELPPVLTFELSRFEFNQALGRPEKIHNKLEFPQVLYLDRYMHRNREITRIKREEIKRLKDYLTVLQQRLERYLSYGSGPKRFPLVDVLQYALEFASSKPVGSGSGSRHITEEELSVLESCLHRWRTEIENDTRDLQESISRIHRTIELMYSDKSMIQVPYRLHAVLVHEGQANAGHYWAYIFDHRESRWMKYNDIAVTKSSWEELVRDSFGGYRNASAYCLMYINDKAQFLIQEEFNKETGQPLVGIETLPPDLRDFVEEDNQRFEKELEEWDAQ

[4] = target: T4, USP25Δtip L271F (Homo sapiens, UniProt Q9UHP3, DEL465-537/INS464GSGSGS/L271F); experiment: Ub-Rho110 dose–response assay, USP25Δtip L271F
T4 construct: 6xHis or thioredoxin-6xHis (N, cleaved yes); made in house; host or cells: E. coli BL21star (DE3)
T4 sequence (Q9UHP3 with tags, fused parts or gaps L271F/DEL465-477/P478G/DEL482-535/A536G/P537S limits assumed): T3 sequence (Q9UHP3 with tags, fused parts or gaps H268A/DEL465-477/P478G/DEL482-535/A536G/P537S limits assumed) with A112H, L115F

[5] = target: T5, USP25Δtip D272S (Homo sapiens, UniProt Q9UHP3, D272S/DEL465-537/INS464GSGSGS); experiment: Ub-Rho110 dose–response assay, USP25Δtip D272S
T5 construct: 6xHis or thioredoxin-6xHis (N, cleaved yes); made in house; host or cells: E. coli BL21star (DE3)
T5 sequence (Q9UHP3 with tags, fused parts or gaps D272S/DEL465-477/P478G/DEL482-535/A536G/P537S limits assumed): T3 sequence (Q9UHP3 with tags, fused parts or gaps H268A/DEL465-477/P478G/DEL482-535/A536G/P537S limits assumed) with A112H, D116S

[6] = mean of replicates, read-out: IC50, mean and SD
[7] = single replicates, read-out: IC50 of each replicate curve (unlabelled line above mean and SD)
[8] = read-out: relative inhibition [%] - USP28 - D265S
[9] = read-out: relative inhibition [%] - USP28 - Q315A

## Cc1ccc2c(N)c(C(=O)NC3CCc4cc(N5CC6CCC(C5)N6)ccc4C3)sc2n1 (stereo not shown) [FT206]
[1]
  t-test vs. USP28 WT control - D265S: 4.502E-03
[1]; [6]
  IC50: 310 nM
[1]; [7]
  IC50: 288 nM and 267 nM and 284 nM and 266 nM and 437 nM
[1]; [8]
  inhibition at 11.11 µM: 99.7%
  inhibition at 33.33 µM: 100%
  inhibition at 100 µM: 101%
  inhibition at […]: 97.8% and 94.4% and 33.5% and 30.9%
[2]
  t-test vs. USP28 WT control - Q315A: 6.868E-03
[2]; [6]
  IC50: 360 nM
[2]; [7]
  IC50: 492 nM and 375 nM and 444 nM and 267 nM and 246 nM
[2]; [9]
  inhibition at 11.11 µM: 96.4%
  inhibition at 33.33 µM: 97.8%
  inhibition at 100 µM: 98.7%
  inhibition at […]: 92.1% and 78.6% and 44.2%
[3]; p value, inhibitor IC50 on USP25 H268A compared with USP25 WT
  t-test vs. USP25 WT control - H268A: 1.749E-05
[3]; read-out: relative inhibition [%] - USP25 - H268A
  inhibition at 11.11 µM: 29.7%
[3]; read-out: relative inhibition [%] - USP25 - H268A, inhibitor 33.33 µM, single replicates
  inhibition at 33.33 µM: 55.5%
[3]; read-out: relative inhibition [%] - USP25 - H268A, inhibitor 100.00 µM, single replicates
  inhibition at 100 µM: 78.2%
[4]; p value, inhibitor IC50 on USP25 L271F compared with USP25 WT
  t-test vs. USP25 WT control - L271F: 4.479E-03
[4]; read-out: relative inhibition [%] - USP25 - L271F, inhibitor 11.11 µM, single replicates
  inhibition at 11.11 µM: 90.1%
[4]; read-out: relative inhibition [%] - USP25 - L271F, inhibitor 33.33 µM, single replicates
  inhibition at 33.33 µM: 95.6%
[4]; read-out: relative inhibition [%] - USP25 - L271F, inhibitor 100.00 µM, single replicates
  inhibition at 100 µM: 100%
[5]; p value, inhibitor IC50 on USP25 D272S compared with USP25 WT
  t-test vs. USP25 WT control - D272S: 3.650E-02
[5]; read-out: relative inhibition [%] - USP25 - D272S, inhibitor 33.33 µM, single replicates
  inhibition at 33.33 µM: 87.3%
[5]; read-out: relative inhibition [%] - USP25 - D272S, inhibitor 100.00 µM, single replicates
  inhibition at 100 µM: 95.2%
